Measurements: US8846673B2, “Azaindazoles as kinase inhibitors and use thereof” (Bristol-Myers Squibb Company, priority 2009, dated 2014)

Legend:
[1] = target: human recombinant Btk (Homo sapiens (Human), UniProt Q06187); assay: Human Recombinant Btk Enzyme Assay (LLE_Btk); assay type: biochemical; conditions: human recombinant Btk 1 nM, ATP 20 μM, 60 min room temperature
Method: Human Recombinant Btk Enzyme Assay
After incubating at room temperature for 60 min, the reaction was terminated by adding 45 μl of 35 mM EDTA to each sample. The reaction mixture was analyzed on the Caliper LABCHIP® 3000 (Caliper, Hopkinton, Mass.) by electrophoretic separation of the fluorescent substrate and phosphorylated product. […] Compounds were dissolved at 10 mM in dimethylsulfoxide (DMSO) and evaluated at eleven concentrations.

[2] = target: Btk (pY551) in Ramos cells (Homo sapiens (Human), UniProt Q06187); assay: Btk Phosphorylation Assay; assay type: cell-based; conditions: 1 hr preincubation, stimulated with anti-human IgM+IgG 50 μg/mL for 2 min
Method: Btk Phosphorylation Assay
Ramos cells (˜6×10^6 cells/10 were incubated in the presence of Btk inhibitors for 1 hr at 37° C. before being stimulated with anti-human IgM+IgG (F(ab′)2 fragment, Jackson ImmunoResearch, Catalog No. 109-006-127) at 50 μg/mL for exactly 2 min at 37° C. Cells were immediately fixed by adding an equal volume of pre-warmed BD Phosflow Fix buffer I (BD Biosciences, catalog number 557870) to the cell suspension. After incubating at 37° C. for 10 minutes, the cells were washed once with 3 mL FACS washing buffer (1% FBS/PBS) and permeabilized by adding 0.5 mL of cold BD Phosflow Penn Buffer III (BD Biosciences, Catalog No. 558050) and incubating for 30 minutes on ice. The cells were washed an additional two times with 3 mL BD FACS washing buffer, re-suspended in 100 μL FACS washing buffer, stained with 20 μL, Alexa647 anti-Btk (pY551) (BD Biosciences, Catalog No. 558134), incubated at room temperature for 30 minutes in the dark, and washed once with 3 ml of FACS washing buffer. The cells were re-suspended in 400 μl FACS wash buffer and analyzed using FACSCalibur (BD Biosciences). Median fluorescent intensity (MFI) on Alexa 647 (FL-4) data were collected and used for calculations of inhibition.

human recombinant Btk, sequence (Q06187 whole entry): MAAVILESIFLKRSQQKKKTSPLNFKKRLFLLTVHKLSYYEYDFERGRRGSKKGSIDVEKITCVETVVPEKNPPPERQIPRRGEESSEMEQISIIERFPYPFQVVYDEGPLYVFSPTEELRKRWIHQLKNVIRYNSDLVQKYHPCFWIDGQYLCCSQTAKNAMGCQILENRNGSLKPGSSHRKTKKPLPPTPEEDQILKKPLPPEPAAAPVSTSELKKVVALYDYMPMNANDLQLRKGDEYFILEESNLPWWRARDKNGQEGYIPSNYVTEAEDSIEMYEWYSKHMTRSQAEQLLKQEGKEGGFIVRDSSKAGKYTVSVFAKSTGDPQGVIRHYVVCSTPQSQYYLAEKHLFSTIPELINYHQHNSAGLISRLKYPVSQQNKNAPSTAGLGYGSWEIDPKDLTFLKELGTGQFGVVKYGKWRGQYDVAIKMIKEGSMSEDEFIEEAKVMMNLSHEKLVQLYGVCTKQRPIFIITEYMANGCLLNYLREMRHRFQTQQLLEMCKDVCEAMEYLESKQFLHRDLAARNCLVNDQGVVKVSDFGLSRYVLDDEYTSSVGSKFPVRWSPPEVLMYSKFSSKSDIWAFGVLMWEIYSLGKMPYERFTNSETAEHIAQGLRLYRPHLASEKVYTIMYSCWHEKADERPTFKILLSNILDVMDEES
Btk (pY551) in Ramos cells, sequence (Q06187 whole entry): as above

IC50 [1] [nM] | IC50 [2] [nM] | Compound
290 |  | Cc1cccc(Oc2ccc(-c3cc(C4CCCC4)nc4[nH]nc(N)c34)cc2)c1 [Example 5, 6-Cyclopentyl-4-(4-(3-methylphenoxy)phenyl)-1H-pyrazolo[3,4-b]pyridin-3-amine]
 | 320 | Nc1n[nH]c2nccc(-c3ccc(Oc4ccccc4)cc3)c12 [Example 6, 4-(4-Phenoxyphenyl)-1H-pyrazolo[3,4-b]pyridin-3-amine]
9310 |  | CC(C)Oc1ccc(-c2cncc3[nH]nc(N)c23)cc1 [Example 43, 4-(4-Isopropoxyphenyl)-1H-pyrazolo[3,4-c]pyridin-3-amine]
40600 |  | Nc1n[nH]c2cncc(-c3ccc(C(=O)N4CCCC4)cc3)c12 [Example 47, 4-(4-(1-Pyrrolidinylcarbonyl)phenyl)-1H-pyrazolo[3,4-c]pyridin-3-amine]
270 |  | CS(=O)(=O)Nc1cccc(-c2ncc(-c3ccc(Oc4ccccc4)cc3)c3c(N)n[nH]c23)c1 [Example 62, N-(3-(3-Amino-4-(4-phenoxyphenyl)-1H-pyrazolo[3,4-c]pyridin-7-yl)phenyl) methanesulfonamide]
9180 |  | Nc1n[nH]c2c(-c3ccc(Cl)c(Cl)c3)ncc(-c3ccc(Oc4ccccc4)cc3)c12 [Example 82, 7-(3,4-Dichlorophenyl)-4-(4-phenoxyphenyl)-1H-pyrazolo[3,4-c]pyridin-3-amine]
250 |  | Nc1n[nH]c2c(-c3ccc4[nH]ccc4c3)ncc(-c3ccc(Oc4ccccc4)cc3)c12 [Example 95, 7-(1H-Indol-5-yl)-4-(4-phenoxyphenyl)-1H-pyrazolo[3,4-c]pyridin-3-amine]
12700 |  | Cc1ccccc1-c1ncc(-c2ccc(Oc3ccccc3)cc2)c2c(N)n[nH]c12 [Example 107, 7-(2-Methylphenyl)-4-(4-phenoxyphenyl)-1H-pyrazolo[3,4-c]pyridin-3-amine]
16100 |  | Nc1n[nH]c2c(-c3cccc(C(F)(F)F)c3)ncc(-c3ccc(Oc4ccccc4)cc3)c12 [Example 108, 4-(4-Phenoxyphenyl)-7-(3-(trifluoromethyl)phenyl)-1H-pyrazolo[3,4-c]pyridin-3-amine]
2 |  | Nc1n[nH]c2cc(-c3ccc(-c4nnn[nH]4)cc3)nc(-c3ccc(Oc4ccccc4)cc3)c12 [Example 223, 4-(4-Phenoxyphenyl)-6-(4-(1H-tetrazol-5-yl)phenyl)-1H-pyrazolo[4,3-c]pyridin-3-amine]
1 |  | Nc1n[nH]c2c(-c3ccccn3)cnc(-c3ccc(Oc4ccccc4)cc3)c12 [Example 225, 4-(4-Phenoxyphenyl)-7-(2-pyridinyl)-1H-pyrazolo[4,3-c]pyridin-3-amine]
3 |  | Nc1n[nH]c2cc(C3CCCN(C(=O)Nc4ccccc4)C3)nc(-c3ccc(Oc4ccccc4)cc3)c12 (stereo not drawn) [Example 236, 3-(3-Amino-4-(4-phenoxyphenyl)-1H-pyrazolo[4,3-c]pyridin-6-yl)-N-phenyl-1-piperidinecarboxamide]
2 |  | Nc1n[nH]c2cc(C3CCN(C(=O)Nc4ccccc4)CC3)nc(-c3ccc(Oc4ccccc4)cc3)c12 [Example 242, 4-(3-Amino-4-(4-phenoxyphenyl)-1H-pyrazolo[4,3-c]pyridin-6-yl)-N-phenyl-1-piperidinecarboxamide]

The remaining lines, values behind:

Compound | IC50 [1] [nM] | IC50 [2] [nM]
Cc1csc(NC(=O)NC2CCN(c3cc(-c4ccc(Oc5ccccc5)cc4)c4c(N)n[nH]c4n3)C2)n1 (stereo not drawn) [Example 31, 1-(1-(3-Amino-4-(4-phenoxyphenyl)-1H-pyrazolo[3,4-b]pyridin-6-yl)-3-pyrrolidinyl)-3-(4-methyl-1,3-thiazol-2-yl)urea] | 9410 | 
Nc1n[nH]c2cncc(-c3ccc(OC4CCCC4)cc3)c12 [Example 44, 4-(4-(Cyclopentyloxy)phenyl)-1H-pyrazolo[3,4-c]pyridin-3-amine] | 9490 | 
Nc1n[nH]c2c(-c3ccc(NC(=O)c4ccccc4)cc3)ncc(-c3ccc(Oc4ccccc4)cc3)c12 [Example 61, N-(4-(3-Amino-4-(4-phenoxyphenyl)-1H-pyrazolo[3,4-c]pyridin-7-yl)phenyl)benzamide] | 14900 | 
CS(=O)(=O)Nc1ccc(-c2ncc(-c3ccc(Oc4ccccc4)cc3)c3c(N)n[nH]c23)cc1 [Example 96, N-(4-(3-Amino-4-(4-phenoxyphenyl)-1H-pyrazolo[3,4-c]pyridin-7-yl)phenyl)methanesulfonamide] | 280 | 
CC(C)COc1cccc(-c2ncc(-c3ccc(Oc4ccccc4)cc3)c3c(N)n[nH]c23)c1 [Example 102, 7-(3-Isobutoxyphenyl)-4-(4-phenoxyphenyl)-1H-pyrazolo[3,4-c]pyridin-3-amine] | 14000 | 
Nc1n[nH]c2c(-c3cccc(OC(F)(F)F)c3)ncc(-c3ccc(Oc4ccccc4)cc3)c12 [Example 113, 4-(4-Phenoxyphenyl)-7-(3-(trifluoromethoxy)phenyl)-1H-pyrazolo[3,4-c]pyridin-3-amine] | 13800 | 
Nc1n[nH]c2nc(-c3cccs3)nc(-c3ccc(Oc4ccccc4)cc3)c12 [Example 120, 4-(4-Phenoxyphenyl)-6-(2-thienyl)-1H-pyrazolo[3,4-δ]pyrimidin-3-amine] | 240 | 
COc1cccc(-c2cnc(Nc3ccccc3)c3[nH]nc(N)c23)c1 [Example 128, 4-(3-Methoxyphenyl)-N^7-phenyl-1H-pyrazolo[3,4-c]pyridine-3,7-diamine] | 290 | 
COc1cccc(-c2cnc(Nc3ccccc3Cl)c3[nH]nc(N)c23)c1 [Example 130, N^7-(2-Chlorophenyl)-4-(3-methoxyphenyl)-1H-pyrazolo[3,4-c]pyridine-3,7-diamine] | 230 | 
COc1ccc(-c2cnc(Nc3ccccc3C)c3[nH]nc(N)c23)cc1 [Example 132, 4-(4-Methoxyphenyl)-N^7-(2-methylphenyl)-1H-pyrazolo[3,4-c]pyridine-3,7-diamine] | 260 | 
Cc1ccccc1Nc1ncc(-c2cccc(OC(C)C)c2)c2c(N)n[nH]c12 [Example 137, 4-(3-Isopropoxyphenyl)-N^7-(2-methylphenyl)-1H-pyrazolo[3,4-c]pyridine-3,7-diamine] | 240 | 
C=CC(=O)N1CCCC(c2cc3[nH]nc(N)c3c(-c3ccc(Oc4ccccc4)cc3)n2)C1 (stereo not drawn) [Example 237, 6-(1-Acryloyl-3-piperidinyl)-4-(4-phenoxyphenyl)-1H-pyrazolo[4,3-c]pyridin-3-amine] | 4 | 
COC(=O)C(=O)N1CCCC(c2cc3[nH]nc(N)c3c(-c3ccc(Oc4ccccc4)cc3)n2)C1 (stereo not drawn) [Example 238, Methyl(3-(3-amino-4-(4-phenoxyphenyl)-1H-pyrazolo[4,3-c]pyridin-6-yl)-1-piperidinyl)(oxo)acetate] | 2 | 
CN(C)C(=O)Cn1ccc(Nc2cc3[nH]nc(N)c3c(-c3ccc(Oc4ccccc4)cc3)n2)n1 [Example 249, 2-(3-((3-Amino-4-(4-phenoxyphenyl)-1H-pyrazolo[4,3-c]pyridin-6-yl)amino)-1H-pyrazol-1-yl)-N,N-dimethylacetamide] | 3 | 
